Test results from ChEMBL document CHEMBL3714767, “Imidazothiadiazole and imidazopyridazine derivatives as protease activated receptor 4 (PAR4) inhibitors for treating platelet aggregation” (2013).
Active and inactive are the calls of the source. The calls are words filed in the database; no cut-off is given here. Where a SMILES comes first, the peptide text is derived from it. [ ]: non-standard residue; d: D form. The star is where a group is joined. Phe(4-guanidino) = N=C(N)Nc1ccc(C[C@H](N)C(=O)O)cc1; Phe(4-F) = N[C@@H](Cc1ccc(F)cc1)C(=O)O; X1 = O=C(/C=C/c1ccccc1)*

Columns and labels:
[1] = target: T1, Proteinase-activated receptor 1 (Homo sapiens) (UniProt P25116); assay: Antagonist activity against PAR1 in washed human platelets assessed as inhibition of alpha-thrombin-induced platelet aggregation at 30 to 300 nM pre-incubated for 20 mins before alpha-thrombin addition and measured over 100 to 500 secs by optical aggregometry; format: functional
T1 sequence (whole entry): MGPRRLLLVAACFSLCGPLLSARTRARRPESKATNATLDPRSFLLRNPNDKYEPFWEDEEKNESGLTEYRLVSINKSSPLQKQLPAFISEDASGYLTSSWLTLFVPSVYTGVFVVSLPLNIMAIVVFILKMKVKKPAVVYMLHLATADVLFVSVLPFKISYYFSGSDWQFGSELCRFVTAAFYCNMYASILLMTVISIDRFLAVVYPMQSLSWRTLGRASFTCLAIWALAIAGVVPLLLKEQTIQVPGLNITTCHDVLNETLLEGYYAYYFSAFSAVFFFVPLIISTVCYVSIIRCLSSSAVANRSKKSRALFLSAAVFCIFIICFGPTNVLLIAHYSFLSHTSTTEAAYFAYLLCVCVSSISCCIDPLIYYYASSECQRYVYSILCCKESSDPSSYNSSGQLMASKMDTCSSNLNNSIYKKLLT

[2] = target: T2, Proteinase-activated receptor 4 (Homo sapiens) (UniProt Q96RI0); assay: Antagonist activity against PAR4 in washed human platelets assessed as inhibition of alpha-thrombin-induced platelet aggregation at 30 to 300 nM pre-incubated for 20 mins before alpha-thrombin addition and measured over 100 to 500 secs by optical aggregometry; format: functional
T2 sequence (whole entry): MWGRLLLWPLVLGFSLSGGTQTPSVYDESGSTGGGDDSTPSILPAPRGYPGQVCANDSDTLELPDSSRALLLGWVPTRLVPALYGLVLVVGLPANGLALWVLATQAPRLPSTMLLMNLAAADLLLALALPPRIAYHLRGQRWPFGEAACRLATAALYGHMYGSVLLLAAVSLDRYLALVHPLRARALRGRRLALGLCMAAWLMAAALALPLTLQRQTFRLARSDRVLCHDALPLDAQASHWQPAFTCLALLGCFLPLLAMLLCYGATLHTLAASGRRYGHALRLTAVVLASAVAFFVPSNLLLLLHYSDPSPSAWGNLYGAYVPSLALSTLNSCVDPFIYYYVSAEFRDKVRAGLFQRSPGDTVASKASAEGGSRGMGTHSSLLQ

Structure (SMILES) | inhibition [1] | inhibition [2]
CC(C)C[C@H](NC(=O)[C@H](Cc1ccc(NC(=N)N)cc1)NC(=O)[C@H](Cc1ccc(F)cc1)NC(=O)/C=C/c1ccccc1)C(=O)N[C@@H](CCCNC(=N)N)C(=O)N[C@@H](CCCNC(=N)N)C(=O)O (X1-[Phe(4-F)][Phe(4-guanidino)]LRR-OH) | Active | –
COc1cc(OCc2cccc(-c3ccc(C#N)nc3)c2)c2cc(-c3cn4nc(OC)sc4n3)oc2c1 | – | Active
